Experiments:
[1] = Tmax in BALB/c mouse at 75 mg/kg,po measured upto 24 hrs by LC-MS/MS analysis; format: ADME, organism-based; details: in vivo
[2] = Cmax in BALB/c mouse at 75 mg/kg,po measured upto 24 hrs by LC-MS/MS analysis; format: ADME, organism-based; details: in vivo
CAPAN-1 = assay: Antiproliferative activity against human CAPAN-1 cells assessed as inhibition of cell growth incubated for 72 hrs by MTS assay; format: functional, cell-based; details: CAPAN-1, 72 h
Granta-519 [3] = assay: Induction of cell cycle arrest in human Granta-519 cells assessed as accumulation of cells at G1 phase at 2000 nM incubated for 24 hrs by propidium iodide staining based flow cytometry (reference value: 45.83 %); format: functional
NCI-H446 = assay: Antiproliferative activity against human NCI-H446 cells assessed as inhibition of cell growth incubated for 72 hrs by MTS assay; format: functional, cell-based; details: NCI-H446, 72 h
SUD4 = assay: Antiproliferative activity against human SU-DHL-4 cells assessed as inhibition of cell growth incubated for 72 hrs by MTS assay; format: functional, cell-based; details: SU-DHL-4, 72 h
Granta-519 [4] = assay: Induction of apoptosis in human Granta-519 cells assessed as late apoptotic cells at 2000 nM incubated for 48 hrs by Annexin-V-FITC/propidium iodide staining based flow cytometry (reference value: 3.07 %); format: functional
HT-29 = assay: Antiproliferative activity against human HT-29 cells assessed as inhibition of cell growth incubated for 72 hrs by MTS assay; format: functional, cell-based; details: HT-29, 72 h
[5] = AUCinfinity in BALB/c mouse at 75 mg/kg,po measured upto 24 hrs by LC-MS/MS analysis; format: ADME, organism-based; details: in vivo
Granta-519 [6] = assay: Induction of apoptosis in human Granta-519 cells assessed as viable cells at 2000 nM incubated for 48 hrs by Annexin-V-FITC/propidium iodide staining based flow cytometry (reference value: 92.7 %); format: functional; details: read-out: Activity
[7] = Half life in BALB/c mouse at 75 mg/kg,po measured upto 24 hrs by LC-MS/MS analysis; format: ADME, organism-based; details: in vivo
LoVo = assay: Antiproliferative activity against human LoVo cells assessed as inhibition of cell growth incubated for 72 hrs by MTS assay; format: functional, cell-based
[8] = Brain to plasma ratio in ICR mouse at 50 mg/kg,po measured upto 24 hrs by LC-MS/MS analysis; format: ADME, organism-based
OCI-Ly10 = assay: Antiproliferative activity against human OCI-Ly10 cells assessed as inhibition of cell growth incubated for 72 hrs by MTS assay; format: functional, cell-based; details: OCI-Ly10, 72 h
Granta-519 [9] = assay: Induction of apoptosis in human Granta-519 cells assessed as early apoptotic cells at 2000 nM incubated for 48 hrs by Annexin-V-FITC/propidium iodide staining based flow cytometry (reference value: 3.75 %); format: functional
A2780 = assay: Antiproliferative activity against human A2780 cells assessed as inhibition of cell growth incubated for 72 hrs by MTS assay; format: functional, cell-based; details: A2780, 72 h
Granta-519 [10] = assay: Induction of cell cycle arrest in human Granta-519 cells assessed as accumulation of cells at S phase at 2000 nM incubated for 24 hrs by propidium iodide staining based flow cytometry (reference value: 44.81 %); format: functional
PC-3 = assay: Antiproliferative activity against human PC-3 cells assessed as inhibition of cell growth incubated for 72 hrs by MTS assay; format: functional, cell-based; details: PC-3, 72 h
Granta-519 [11] = assay: Antiproliferative activity against human Granta-519 cells assessed as inhibition of cell growth incubated for 72 hrs by MTS assay; format: functional, cell-based; details: Granta-519, 72 h
DLD-1 = assay: Antiproliferative activity against human DLD-1 cells assessed as inhibition of cell growth incubated for 72 hrs by MTS assay; format: functional, cell-based; details: DLD-1, 72 h
HCT-116 = assay: Antiproliferative activity against human HCT-116 cells assessed as inhibition of cell growth incubated for 72 hrs by MTS assay; format: functional, cell-based; details: HCT-116, 72 h
Granta-519 [12] = assay: Induction of apoptosis in human Granta-519 cells assessed as necrotic cells at 2000 nM incubated for 48 hrs by Annexin-V-FITC/propidium iodide staining based flow cytometry (reference value: 0.429 %); format: functional

For `C[C@@H]1COCCN1c1cc(C2([S@](C)(=N)=O)CC2)nc(-c2cc[nH]c3nccc2-3)n1` [CERALASERTIB], the Tmax [1] was 0.25 h, the Cmax [2] was 12000 ng/mL and the IC50 (CAPAN-1) was 5540 nM. For the same compound, the Activity (Granta-519 [3]) was 30.16%, the IC50 (NCI-H446) was 1960 nM and the IC50 (SUD4) was 2260 nM. It also gave an Activity (Granta-519 [4]) of 10.3%, an IC50 (HT-29) of 2590 nM and an AUC(0-inf) [5] of 41600 ng·h/mL. It also gave a viability at 2 µM (Granta-519 [6]) of 78%, a half-life [7] of 1.93 h and an IC50 (LoVo) of 1140 nM. It also gave a BPR [8] of 6.6%, an IC50 (OCI-Ly10) of 520 nM and an Activity (Granta-519 [9]) of 8.66%. It also gave an IC50 (A2780) of 620 nM, an Activity (Granta-519 [10]) of 67.69% and an IC50 (PC-3) of 11300 nM. The IC50 (Granta-519 [11]) was 550 nM, the IC50 (DLD-1) was 5280 nM and the IC50 (HCT-116) was 1120 nM. For the same compound, the Activity (Granta-519 [12]) was 3.07%.

Source: ChEMBL document CHEMBL5523766 (J Med Chem, 2024)
